Values after ≈ are worked out from the molar mass of the structure shown. Active and inactive are the calls of the source. The calls are words filed in the database; no cut-off is given here.
Assays:
[1] = Chemical stability of the compound in DMSO solution by LC-MS analysis; assay type: physicochemical
[2] = Inhibition of His-tagged recombinant catalytic fragment of PKA assessed as phosphorylation of fluorescent-labeled peptide 21substrate by caliper capillary electrophoresis
[3] = target: T1, Serine/threonine-protein kinase 33 (Homo sapiens, UniProt Q9BYT3); assay: Inhibition of N-terminal 6His-tagged full length human recombinant STK33 using myelin basic protein as substrate incubated for 15 mins before initiation of kinase reaction measured after 1 hr by ADP-glo assay
Target sequence in this assay (Q9BYT3 whole entry): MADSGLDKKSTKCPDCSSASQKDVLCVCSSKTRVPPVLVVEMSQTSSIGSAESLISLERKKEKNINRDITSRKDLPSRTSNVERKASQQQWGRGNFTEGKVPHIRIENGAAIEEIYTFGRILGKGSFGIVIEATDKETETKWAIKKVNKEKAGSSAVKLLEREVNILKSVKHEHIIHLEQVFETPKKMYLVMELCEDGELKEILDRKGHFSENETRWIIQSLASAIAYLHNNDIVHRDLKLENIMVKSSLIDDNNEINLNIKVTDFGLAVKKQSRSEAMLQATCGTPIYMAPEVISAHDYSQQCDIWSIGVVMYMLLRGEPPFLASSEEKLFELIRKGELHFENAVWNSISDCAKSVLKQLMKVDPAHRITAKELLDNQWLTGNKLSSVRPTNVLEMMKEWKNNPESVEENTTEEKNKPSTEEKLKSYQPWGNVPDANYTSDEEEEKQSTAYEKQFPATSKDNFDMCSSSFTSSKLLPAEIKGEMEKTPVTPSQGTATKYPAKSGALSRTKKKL

[4] = organism: Homo sapiens; assay: Selectivity ratio of IC50 for human Aurora-B to IC50 for N-terminal 6His-tagged full length human recombinant STK33
[5] = organism: Homo sapiens; assay: Selectivity ratio of IC50 for His-tagged recombinant catalytic fragment of PKA to IC50 for N-terminal 6His-tagged full length human recombinant STK33
[6] = Metabolic stability in mouse plasma at 5 uM after 5 hrs by UPLC-MS analysis; assay type: ADME, cell-free; conditions: read-out: Stability
[7] = Metabolic stability in human plasma at 5 uM after 5 hrs by UPLC-MS analysis; assay type: ADME, cell-free; conditions: read-out: Stability
[8] = system: Plasma; assay: Plasma protein binding in mouse at 5 uM after 5 hrs by equilibrium dialysis method; assay type: ADME, cell-free
[9] = system: Plasma; assay: Plasma protein binding in human at 5 uM after 5 hrs by equilibrium dialysis method; assay type: ADME, cell-free
[10] = Solubility of the compound in PBS at pH 7.4; assay type: physicochemical; conditions: buffer
[11] = system: OCI-AML-3; assay: Cytotoxicity against human OCI-AML3 cells expressing wild type KRAS assessed as effect on cell viability up to 10 uM after 72 hrs by CellTiter-Glo luminescent assay; assay type: functional, cell-based
[12] = system: THP-1; assay: Cytotoxicity against human THP1 cells expressing wild type KRAS assessed as effect on cell viability up to 10 uM after 72 hrs by CellTiter-Glo luminescent assay; assay type: functional, cell-based
[13] = system: Jurkat; assay: Cytotoxicity against human Jurkat cells expressing wild type KRAS assessed as effect on cell viability up to 10 uM after 72 hrs by CellTiter-Glo luminescent assay; assay type: functional, cell-based
[14] = system: MOLM16; assay: Cytotoxicity against human MOLM16 cells expressing wild type KRAS assessed as effect on cell viability up to 10 uM after 72 hrs by CellTiter-Glo luminescent assay; assay type: functional, cell-based
[15] = system: MM1.S; assay: Cytotoxicity against human MM1S cells expressing wild type KRAS assessed as effect on cell viability up to 10 uM after 72 hrs by CellTiter-Glo luminescent assay; assay type: functional, cell-based
[16] = system: U-937; assay: Cytotoxicity against human U937 cells expressing wild type KRAS assessed as effect on cell viability up to 10 uM after 72 hrs by CellTiter-Glo luminescent assay; assay type: functional, cell-based
[17] = system: EJM; assay: Cytotoxicity against human EJM cells expressing wild type KRAS assessed as effect on cell viability up to 10 uM after 72 hrs by CellTiter-Glo luminescent assay; assay type: functional, cell-based
[18] = system: GDM-1; assay: Cytotoxicity against human GDM-1 cells expressing wild type KRAS assessed as effect on cell viability up to 10 uM after 72 hrs by CellTiter-Glo luminescent assay; assay type: functional, cell-based
[19] = system: EOL1; assay: Cytotoxicity against human EOL-1 cells expressing wild type KRAS assessed as effect on cell viability up to 10 uM after 72 hrs by CellTiter-Glo luminescent assay; assay type: functional, cell-based
[20] = system: PL21; assay: Cytotoxicity against human PL21 cells expressing wild type KRAS assessed as effect on cell viability up to 10 uM after 72 hrs by CellTiter-Glo luminescent assay; assay type: functional, cell-based
[21] = organism: Homo sapiens; assay: Cytotoxicity against human KARPAS620 cells expressing KRAS mutant gene assessed as effect on cell viability up to 10 uM after 72 hrs by CellTiter-Glo luminescent assay; assay type: functional, cell-based
[22] = system: RPMI-8226; assay: Cytotoxicity against human RPMI8226 cells expressing KRAS mutant gene assessed as effect on cell viability up to 10 uM after 72 hrs by CellTiter-Glo luminescent assay; assay type: functional, cell-based
[23] = system: NB-4; assay: Cytotoxicity against human NB4 cells expressing KRAS mutant gene assessed as effect on cell viability up to 10 uM after 72 hrs by CellTiter-Glo luminescent assay; assay type: functional, cell-based
[24] = system: SKM-1; assay: Cytotoxicity against human SKM1 cells expressing KRAS mutant gene assessed as effect on cell viability up to 10 uM after 72 hrs by CellTiter-Glo luminescent assay; assay type: functional, cell-based
[25] = system: KOPN-8; assay: Cytotoxicity against human KOPN8 cells expressing KRAS mutant gene assessed as effect on cell viability up to 10 uM after 72 hrs by CellTiter-Glo luminescent assay; assay type: functional, cell-based
[26] = system: MDA-MB-231; assay: Cytotoxicity against human MDA-MB-231 cells expressing KRAS mutant gene assessed as effect on cell viability up to 10 uM after 72 hrs by CellTiter-Glo luminescent assay; assay type: functional, cell-based
[27] = system: NOMO-1; assay: Cytotoxicity against human NOMO1 cells expressing KRAS mutant gene assessed as effect on cell viability up to 10 uM after 72 hrs by CellTiter-Glo luminescent assay; assay type: functional, cell-based
[28] = target: T1, Serine/threonine-protein kinase 33; conditions: 1 uM
Target sequence in this assay (Q9BYT3 whole entry, looked up): as the sequence (Q9BYT3 whole entry) above
Description: Inhibition of N-terminal 6His-tagged full length human recombinant STK33 using myelin basic protein as substrate at 1 uM incubated for 15 mins before initiation of kinase reaction measured after 1 hr by ADP-glo assay

[29] = target: Vascular endothelial growth factor receptor 2 (Homo sapiens) (UniProt P35968); conditions: 1 uM
Sequence of Vascular endothelial growth factor receptor 2 (Homo sapiens) (P35968 whole entry): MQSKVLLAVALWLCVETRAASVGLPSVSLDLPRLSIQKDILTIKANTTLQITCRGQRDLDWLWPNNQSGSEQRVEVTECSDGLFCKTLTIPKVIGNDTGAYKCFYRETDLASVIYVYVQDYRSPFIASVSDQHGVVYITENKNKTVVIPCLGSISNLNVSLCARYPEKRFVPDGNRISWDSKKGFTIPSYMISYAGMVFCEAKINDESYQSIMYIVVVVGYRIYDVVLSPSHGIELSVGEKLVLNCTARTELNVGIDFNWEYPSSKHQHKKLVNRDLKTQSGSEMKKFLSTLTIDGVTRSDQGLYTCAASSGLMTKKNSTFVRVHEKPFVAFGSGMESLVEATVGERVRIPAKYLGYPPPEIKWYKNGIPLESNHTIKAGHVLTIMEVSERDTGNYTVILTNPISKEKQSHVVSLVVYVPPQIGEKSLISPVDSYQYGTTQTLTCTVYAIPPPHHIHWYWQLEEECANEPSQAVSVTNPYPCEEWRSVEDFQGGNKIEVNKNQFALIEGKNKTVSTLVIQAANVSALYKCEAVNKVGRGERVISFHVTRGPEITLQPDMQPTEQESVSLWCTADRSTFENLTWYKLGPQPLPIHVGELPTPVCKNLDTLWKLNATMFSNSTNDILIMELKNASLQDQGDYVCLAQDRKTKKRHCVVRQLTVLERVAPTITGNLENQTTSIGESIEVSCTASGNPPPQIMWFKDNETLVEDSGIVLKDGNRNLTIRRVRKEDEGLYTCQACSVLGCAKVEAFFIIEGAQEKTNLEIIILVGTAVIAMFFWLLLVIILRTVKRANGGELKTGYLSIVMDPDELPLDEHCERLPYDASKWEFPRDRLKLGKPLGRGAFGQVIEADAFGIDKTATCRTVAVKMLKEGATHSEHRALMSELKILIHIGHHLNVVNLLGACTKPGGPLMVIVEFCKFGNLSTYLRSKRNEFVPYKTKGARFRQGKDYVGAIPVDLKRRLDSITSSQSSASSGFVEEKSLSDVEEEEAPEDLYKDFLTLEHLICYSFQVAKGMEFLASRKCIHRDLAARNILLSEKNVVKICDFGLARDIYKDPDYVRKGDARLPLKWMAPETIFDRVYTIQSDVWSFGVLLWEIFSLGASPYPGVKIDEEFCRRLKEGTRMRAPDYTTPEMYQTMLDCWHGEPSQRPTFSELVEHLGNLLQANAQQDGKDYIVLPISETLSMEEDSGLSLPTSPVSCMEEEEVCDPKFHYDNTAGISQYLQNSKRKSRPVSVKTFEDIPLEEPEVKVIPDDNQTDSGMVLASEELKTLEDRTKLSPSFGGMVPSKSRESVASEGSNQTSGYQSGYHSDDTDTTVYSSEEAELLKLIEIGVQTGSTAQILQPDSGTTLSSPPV
Description: Inhibition of human KDR at 1 uM

[30] = target: Receptor-type tyrosine-protein kinase FLT3 (Homo sapiens) (UniProt P36888); conditions: 1 uM
Sequence of Receptor-type tyrosine-protein kinase FLT3 (Homo sapiens) (P36888 whole entry): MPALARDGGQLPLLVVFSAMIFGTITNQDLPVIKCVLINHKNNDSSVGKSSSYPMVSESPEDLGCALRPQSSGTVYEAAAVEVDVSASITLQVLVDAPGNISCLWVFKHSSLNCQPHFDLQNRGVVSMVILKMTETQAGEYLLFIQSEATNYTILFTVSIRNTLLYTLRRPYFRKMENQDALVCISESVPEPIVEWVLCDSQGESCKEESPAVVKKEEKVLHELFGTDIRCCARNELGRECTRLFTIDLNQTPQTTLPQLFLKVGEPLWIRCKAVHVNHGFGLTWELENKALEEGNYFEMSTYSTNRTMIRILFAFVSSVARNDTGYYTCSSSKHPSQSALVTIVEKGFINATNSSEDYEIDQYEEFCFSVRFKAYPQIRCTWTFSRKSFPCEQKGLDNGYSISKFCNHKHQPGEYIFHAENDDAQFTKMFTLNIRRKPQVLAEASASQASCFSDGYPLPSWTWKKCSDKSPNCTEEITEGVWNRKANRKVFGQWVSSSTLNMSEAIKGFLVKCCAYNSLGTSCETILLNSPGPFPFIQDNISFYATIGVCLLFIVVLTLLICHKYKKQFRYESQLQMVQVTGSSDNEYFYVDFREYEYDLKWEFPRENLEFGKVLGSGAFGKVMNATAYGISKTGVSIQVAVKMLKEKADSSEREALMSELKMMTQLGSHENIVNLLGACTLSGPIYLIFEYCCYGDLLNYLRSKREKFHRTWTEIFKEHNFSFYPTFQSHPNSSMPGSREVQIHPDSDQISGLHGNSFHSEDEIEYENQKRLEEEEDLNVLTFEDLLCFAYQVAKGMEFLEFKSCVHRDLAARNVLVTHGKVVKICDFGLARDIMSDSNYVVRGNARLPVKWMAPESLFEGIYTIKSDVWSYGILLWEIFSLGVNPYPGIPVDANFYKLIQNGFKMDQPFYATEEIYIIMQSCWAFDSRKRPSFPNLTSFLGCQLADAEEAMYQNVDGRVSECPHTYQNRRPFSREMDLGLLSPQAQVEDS
Description: Inhibition of human FLT3 at 1 uM

[31] = organism: Homo sapiens; assay: Selectivity ratio of IC50 for N-terminal 6His-tagged full length human recombinant STK33 to IC50 for human Aurora-B

Question: With O=C(Nc1ccccc1-c1nc2ccccc2[nH]c1=O)c1cccnc1 as the compound, how does the Stability [1] read?
Answer: Stable

Question: What about the IC50 [2] of the same compound?
Answer: > 10000 nM

Question: And the IC50 [3]?
Answer: 580 nM

Question: Which IC50 [3] does the source give for O=c1[nH]c2ccccc2nc1-c1ccccc1NCC1CC1 here?
Answer: > 10000 nM

Question: With CC(=O)NC[C@@H]1C[C@@H](NS(=O)(=O)c2cccc3cncc(C)c23)CN1 as the compound, how does the Ratio IC50 [4] read?
Answer: 5

Question: What about the Ratio IC50 [5] of the same compound?
Answer: 5

Question: With COc1ccc(NC(=O)c2cccs2)c(-c2nc3ccccc3[nH]c2=O)c1 as the compound, how does the IC50 [2] read?
Answer: 7500 nM

Question: And the Ratio IC50 [5]?
Answer: 30

Question: What about the IC50 [3] of the same compound?
Answer: 250 nM

Question: What does the source list for COc1ccc(C(=O)Nc2ccccc2-c2nc3ccccc3[nH]c2=O)cc1?
Answer: IC50 [2]: > 10000 nM; IC50 [3]: 980 nM

Question: For CC(C)c1ccc(NC(=O)c2cccs2)c(-c2nc3ccccc3[nH]c2=O)c1, which remaining at 5 h, 5 µM [6] is on record?
Answer: 10%

Question: What about the remaining at 5 h, 5 µM [7] of the same compound?
Answer: 80.3%

Question: What about the PPB [8] of the same compound?
Answer: 99.9%

Question: What about the PPB [9] of the same compound?
Answer: 99.6%

Question: And the solubility [10]?
Answer: 5.8 µM (≈ 2.26 µg/mL)

Question: And the Activity [11]?
Answer: inactive

Question: What about the Activity [12] of the same compound?
Answer: inactive

Question: And the Activity [13]?
Answer: inactive

Question: And the Activity [14]?
Answer: inactive

Question: What about the Activity [15] of the same compound?
Answer: inactive

Question: What about the Activity [16] of the same compound?
Answer: inactive

Question: And the Activity [17]?
Answer: inactive

Question: And the Activity [18]?
Answer: inactive

Question: What about the Activity [19] of the same compound?
Answer: inactive

Question: What about the Activity [20] of the same compound?
Answer: inactive

Question: And the Activity [21]?
Answer: inactive

Question: What about the Activity [22] of the same compound?
Answer: inactive

Question: And the Activity [23]?
Answer: inactive

Question: What about the Activity [24] of the same compound?
Answer: inactive

Question: What about the Activity [25] of the same compound?
Answer: inactive

Question: And the Activity [26]?
Answer: inactive

Question: What about the Activity [27] of the same compound?
Answer: inactive

Question: And the IC50 [2]?
Answer: > 10000 nM

Question: What about the IC50 [3] of the same compound?
Answer: 14 nM

Question: And the inhibition [28]?
Answer: > 25%

Question: And the inhibition [29]?
Answer: > 25%

Question: And the inhibition [30]?
Answer: > 25%

Question: Which results are given for COc1ccc(-n2ncc3ccc(Nc4ccc(N5CCN(C)CC5)c(OC)c4)nc32)cc1?
Answer: Ratio IC50 [4]: 0.4; Ratio IC50 [31]: 2

Question: With O=c1[nH]c2ccccc2nc1-c1ccccc1NCc1ccccn1 as the compound, how does the IC50 [3] read?
Answer: 1600 nM

Question: Which IC50 [3] does the source give for O=C(Nc1ccccc1-c1nc2ccccc2[nH]c1=O)c1ccccc1 here?
Answer: 170 nM

Question: Which IC50 [2] does the source give for O=C(Nc1cc(F)ccc1-c1nc2ccccc2[nH]c1=O)c1cccs1 here?
Answer: > 10000 nM

Question: And the IC50 [3]?
Answer: 78 nM

Question: For O=C(Nc1ccccc1-c1nc2ccccc2[nH]c1=O)c1ccc(Cl)cc1, which IC50 [3] is on record?
Answer: 300 nM

Question: For O=c1[nH]c2ccccc2nc1-c1ccccc1NCc1ccc(F)cc1, which IC50 [3] is on record?
Answer: > 10000 nM

Question: Which Stability [1] does the source give for O=C(Nc1ccccc1-c1nc2ccccc2[nH]c1=O)c1ccccn1 here?
Answer: Unstable

Question: What about the IC50 [2] of the same compound?
Answer: > 10000 nM

Question: What about the IC50 [3] of the same compound?
Answer: 76 nM

Question: Which results are given for Cc1cc2nc(-c3ccccc3NC(=O)c3cccs3)c(=O)[nH]c2cc1C?
Answer: IC50 [2]: > 10000 nM; IC50 [3]: 1600 nM

Question: With O=C(Nc1ccccc1-c1nc2ccccc2[nH]c1=O)c1ccc(Cl)s1 as the compound, how does the IC50 [3] read?
Answer: 380 nM

Question: Which IC50 [2] does the source give for O=C(Nc1ccccc1-c1nc2ccccc2[nH]c1=O)C1CCCCC1 here?
Answer: > 10000 nM

Question: What about the IC50 [3] of the same compound?
Answer: > 10000 nM

Question: Which results are given for O=c1[nH]c2ccccc2nc1-c1ccccc1NCc1cccs1?
Answer: IC50 [2]: > 10000 nM; IC50 [3]: > 10000 nM

Question: With O=C(Nc1ccc(OC(F)(F)F)cc1-c1nc2ccccc2[nH]c1=O)c1cccs1 as the compound, how does the IC50 [2] read?
Answer: > 10000 nM

Question: What about the IC50 [3] of the same compound?
Answer: 110 nM

Question: What does the source list for O=C(Nc1ccc(Cl)cc1-c1nc2ccccc2[nH]c1=O)c1cccs1?
Answer: IC50 [2]: > 10000 nM; IC50 [3]: 160 nM

Question: Which results are given for O=c1[nH]c2ccccc2nc1-c1ccccc1NCc1ccccc1?
Answer: IC50 [2]: > 10000 nM; IC50 [3]: > 10000 nM

Question: Which results are given for O=C(Nc1ccccc1-c1nc2cc(Cl)c(Cl)cc2[nH]c1=O)c1cccs1?
Answer: IC50 [2]: 4800 nM; Ratio IC50 [5]: 1.1; IC50 [3]: 4000 nM

Question: What does the source list for O=C(Nc1cc(Cl)ccc1-c1nc2ccccc2[nH]c1=O)c1cccs1?
Answer: IC50 [2]: > 10000 nM; IC50 [3]: 270 nM

Question: Which IC50 [3] does the source give for O=c1[nH]c2ccccc2nc1-c1ccccc1NS(=O)(=O)c1cccs1 here?
Answer: > 10000 nM

Question: For O=c1[nH]c2ccccc2nc1-c1ccccc1NS(=O)(=O)c1ccccc1, which IC50 [3] is on record?
Answer: 7300 nM

Question: Which results are given for O=C(Nc1ccccc1-c1nc2cc(F)c(F)cc2[nH]c1=O)c1cccs1?
Answer: IC50 [2]: > 10000 nM; IC50 [3]: 1600 nM

Question: Which IC50 [2] does the source give for O=C(Nc1ccccc1-c1nc2ccccc2nc1O)c1cccs1 here?
Answer: > 10000 nM

Question: What about the IC50 [3] of the same compound?
Answer: 280 nM

Question: Which results are given for O=C(Nc1ccc(F)cc1-c1nc2ccccc2[nH]c1=O)c1cccs1?
Answer: IC50 [2]: > 10000 nM; IC50 [3]: 410 nM

Question: Which IC50 [3] does the source give for O=C(Nc1ccccc1-c1nc2ccccc2[nH]c1=O)c1nccs1 here?
Answer: 530 nM

Question: With O=C(Nc1ccccc1-c1nc2ccccc2[nH]c1=O)c1ccc(F)cc1 as the compound, how does the Stability [1] read?
Answer: Unstable

Question: What about the IC50 [2] of the same compound?
Answer: > 10000 nM

Question: And the IC50 [3]?
Answer: 150 nM

Reference: ChEMBL document CHEMBL2203125, “A Potent and Selective Quinoxalinone-Based STK33 Inhibitor Does Not Show Synthetic Lethality in KRAS-Dependent Cells” (ACS Med Chem Lett, 2012)
